Experimental data published in PMC10477861, “Efficient Mining of Anticancer Peptides from Gut Metagenome” (Advanced Science, 2023).

Assays:
Details in all cases: 25 µM pACP, 24 h, maintenance medium 1% FBS, ratio of viability to vehicle (PBS), at least three technical repetitions
MDA-MB-453 = assay: MTT primary screening of anticancer activity, MDA-MB-453; type: cell-based
Description: (§1) We successfully chemically synthesized 40 pACPs for the purpose of in vitro or in vivo characterization of their potential anticancer efficacy. In the initial step, we conducted an in vitro primary screen of these 40 pACPs using a panel of 16 different cancer cell lines, including four human CRC lines (HT29, Caco2, HCT116, and […]), as well as 12 other cancer models (Table S4, Supporting Information). We deliberately selected a diverse panel of cell lines to assess the effect of pACPs across various genetic backgrounds. Briefly, the cancer cells were cultured in specific media (details provided in the Experimental Section) and then treated with pACPs at a final concentration of 25 µM. Peptides with minimum effective inhibition concentrations >25 µM were considered non‐ACPs. After exposure to pACPs, the survival rate of the cancer cells was measured using the MTT assay. Remarkably, 39 out of the 40 pACPs (97.5%) induced at least 20% inhibition in at least one cell line (Figure 3a and Table S5, Supporting Information). […] Thus, our method successfully identified pACPs with a very high rate of anticancer effects across various cancer cell lines.
(§2) To evaluate the activity of the 40 potentially effective pACPs, a panel of 16 cancer cell lines was treated, including human CRC cell lines (HT29, Caco‐2, HCT116). Details of the cell lines used, respective media, and culture conditions were presented in Table S1 (Supporting Information). Once the cells reached 60% confluence, it was incubated with each candidate peptide at a concentration of 25 µM pACPs for 24 h. Concurrently, the complete medium was replaced with a maintenance medium containing only 1% FBS. Subsequently, the viability of each cell line using the MTT Cell Proliferation and Cytotoxicity Assay Kit according to the manufacturer's instructions was assessed. […] For the CRC cell line CT26, it was calculated the CC50 value using two peptides (pACP1780 and pACP2283) with relevant data presented in Table S6 (Supporting Information). The calculation was performed using an online tool: https://www.aatbio.com/tools/ic50‐calculator.

MDA-MB-436 = assay: MTT primary screening of anticancer activity, MDA-MB-436; type: cell-based
Description: as §1, §2

Hela = assay: MTT primary screening of anticancer activity, Hela; type: cell-based, Human
Description: as §1, §2

MDA-MB-468 = assay: MTT primary screening of anticancer activity, MDA-MB-468; type: cell-based
Description: as §1, §2

HCT116 = assay: MTT primary screening of anticancer activity, HCT116; type: cell-based, Human
Description: as §1, §2

B16 = assay: MTT primary screening of anticancer activity, B16; type: cell-based, Mouse
Description: as §1, §2

HT29 = assay: MTT primary screening of anticancer activity, HT29; type: cell-based, Human
Description: as §1, §2

T47D = assay: MTT primary screening of anticancer activity, T47D; type: cell-based
Description: as §1, §2

LCC = assay: MTT primary screening of anticancer activity, LCC; type: cell-based
Description: as §1, §2

EFM192A = assay: MTT primary screening of anticancer activity, EFM192A; type: cell-based
Description: as §1, §2

Caco2 = assay: MTT primary screening of anticancer activity, Caco2; type: cell-based, Human
Description: as §1, §2

BT474 = assay: MTT primary screening of anticancer activity, BT474; type: cell-based
Description: as §1, §2

CT26 = assay: MTT primary screening of anticancer activity, CT26; type: cell-based, Murine
Description: as §1, §2

MDA-MB-231 = assay: MTT primary screening of anticancer activity, MDA-MB-231; type: cell-based
Description: as §1, §2

SK-BR-3 = assay: MTT primary screening of anticancer activity, SK-BR-3; type: cell-based
Description: as §1, §2

MCF7 = assay: MTT primary screening of anticancer activity, MCF7; type: cell-based
Description: as §1, §2

Row | Sequence | Survival rate of cancer cells in primary screening (MDA-MB-453) | Survival rate of cancer cells in primary screening (MDA-MB-436) | Survival rate of cancer cells in primary screening (Hela) | Survival rate of cancer cells in primary screening (MDA-MB-468) | Survival rate of cancer cells in primary screening (HCT116) | Survival rate of cancer cells in primary screening (B16) | Survival rate of cancer cells in primary screening (HT29) | Survival rate of cancer cells in primary screening (T47D) | Survival rate of cancer cells in primary screening (LCC) | Survival rate of cancer cells in primary screening (EFM192A) | Survival rate of cancer cells in primary screening (Caco2) | Survival rate of cancer cells in primary screening (BT474) | Survival rate of cancer cells in primary screening (CT26) | Survival rate of cancer cells in primary screening (MDA-MB-231) | Survival rate of cancer cells in primary screening (SK-BR-3) | Survival rate of cancer cells in primary screening (MCF7)
1 | DRGERVAHGLDLLDGVVAEGVAAKGDDNTIGLAKRLRHCWNPFCKRPTTH [pACP253] | 1.00 | 1.00 | 1.00 | 0.76 | 1.00 | 1.00 | 1.00 | 0.70 | 1.00 | 1.00 | 1.00 | 1.00 | 1.00 | 1.00 | 1.00 | 1.00
2 | AAGVSIEIHISLTLFTQVKCVARSQCAAEGAGLRHIKVAALQSCSRRRAH [pACP2] | 1.00 | 1.00 | 1.00 | 1.00 | 1.00 | 1.00 | 1.00 | 0.71 | 1.00 | 1.00 | 1.00 | 1.00 | 1.00 | 1.00 | 1.00 | 1.00
3 | RPITNVGGFLEVNGKGVKPLHGNKFKCTVSGSFLASGWFTLELERVL [pACP1757] | 1.00 | 1.00 | 1.00 | 1.00 | 1.00 | 0.79 | 1.00 | 0.76 | 1.00 | 1.00 | 1.00 | 1.00 | 1.00 | 1.00 | 1.00 | 1.00
4 | KFCSSFFKSLQFPKAETLVGFKGKALKISNVLIKKSPIIK [pACP860] | 1.00 | 1.00 | 0.78 | 0.60 | 1.00 | 0.77 | 1.00 | 0.75 | 1.00 | 1.00 | 1.00 | 0.70 | 1.00 | 1.00 | 1.00 | 0.78
5 | LARPDAAPKKQLRRPLRFRQPEWRRISKIHHIPRRFRRA [pACP1156] | 1.00 | 0.74 | 1.00 | 1.00 | 1.00 | 0.78 | 1.00 | 0.74 | 1.00 | 1.00 | 1.00 | 1.00 | 1.00 | 1.00 | 1.00 | 1.00
6 | NTGGIQKIQPLRKTDPLLAPCVSGRIGCPGRRCS [pACP1412] | 1.00 | 1.00 | 1.00 | 1.00 | 1.00 | 0.80 | 1.00 | 0.74 | 1.00 | 1.00 | 1.00 | 1.00 | 1.00 | 1.00 | 1.00 | 1.00
7 | LLSDFRQYRTKIVRQMRRQIFRQMKQKAE [pACP1210] | 1.00 | 1.00 | 1.00 | 1.00 | 1.00 | 0.76 | 1.00 | 0.65 | 1.00 | 1.00 | 1.00 | 1.00 | 1.00 | 1.00 | 1.00 | 0.79
8 | PPSTRIISKVYPFKKHARGGWAIPGMMCSQMVER [pACP1472] | 1.00 | 1.00 | 1.00 | 0.76 | 1.00 | 1.00 | 1.00 | 1.00 | 1.00 | 1.00 | 1.00 | 1.00 | 1.00 | 1.00 | 1.00 | 1.00
9 | YCIFFLDKGFPGILADFLCLAGKRTIKLKALKQLIRQQVY [pACP2286] | 1.00 | 1.00 | 1.00 | 1.00 | 1.00 | 0.77 | 1.00 | 0.63 | 1.00 | 1.00 | 1.00 | 0.72 | 1.00 | 1.00 | 1.00 | 0.76
